Assay: Solubility of initiator in NCO/TEGDMA resin
Type: physicochemical
Details: not soluble above about 2%; percentages by weight
Description: NCO/TEGDMA is a resin blend described in copending SN 040, 636 and used as illustrated in U.S. patent 4,514,174 and comprises a blend of NCO, the reaction product of hexamethylene diisocyanate (HMDI) and Bis-GMA [drawing 4] , and triethyleneglycol dimethacrylate (TEGDMA). At concentrations above about 2%, the benzoyl di (2,6 dimethylphenyl) phosphonate is not soluble in NCO/-TEGDMA resin. When used with an NCO/-TEGDMA resin in concentrations up to about 2%, however, the resin can be cured to a clear, hard film.

Cc1cccc(C)c1OP(=O)(Oc1c(C)cccc1C)C(=O)c1ccccc1 [Benzoyl di-(2,6-dimethylphenyl) phosphonate]
concentration up to which soluble in NCO/TEGDMA resin: about 2%

From patent EP0336417A2, “Phosphonate initiators for light cured compositions” (DENTSPLY INTERNATIONAL, INC., priority 1988, dated 1989)
